Laboratory results reported in ChEMBL document CHEMBL3885881, “DrugMatrix”.

Organism: Rattus norvegicus
Experiment: DrugMatrix - Regimen: Daily Repeat
Type: toxicity, organism-based, Sprague-Dawley
Design: regimen Daily Repeat, gender Male, age 6-8 weeks
Conditions: in vivo, po, route oral GAVAGE, vehicle .5 % CMC; for ABSOLUTE BASOPHIL / ABSOLUTE EOSINOPHIL / ABSOLUTE LYMPHOCYTE / ABSOLUTE MONOCYTE / ABSOLUTE SEGMENTED NEUTROPHIL / BASOPHIL / EOSINOPHIL / ERYTHROCYTE COUNT / HEMATOCRIT / HEMOGLOBIN / LEUKOCYTE COUNT / LYMPHOCYTE / MEAN CORPUSCULAR HEMOGLOBIN / MEAN CORPUSCULAR HEMOGLOBIN CONCENTRATION / MEAN CORPUSCULAR VOLUME / MONOCYTE / NEUTROPHIL / NUCLEATED RED BLOOD CELLS / PLATELET COUNT: tissue Blood; for ALANINE AMINOTRANSFERASE / ALBUMIN / ALKALINE PHOSPHATASE / ASPARTATE AMINOTRANSFERASE / BLOOD UREA NITROGEN / CARBON DIOXIDE / CHLORIDE / CHOLESTEROL / CREATINE PHOSPHOKINASE / CREATININE / GLUCOSE / LACTATE DEHYDROGENASE / LIPASE / PHOSPHORUS / POTASSIUM / SODIUM / TOTAL BILIRUBIN / TOTAL PROTEIN / URIC ACID: tissue Plasma
[1] = 0 mg/kg, 72 h, dose level Control, time 3 day
[2] = 0 mg/kg, 120 h, dose level Control, time 5 day
[3] = 50 mg/kg, 72 h, dose level Low, time 3 day

In the case of `CC(=O)O[C@]1(C(C)=O)CC[C@H]2[C@@H]3C=C(Cl)C4=CC(=O)[C@@H]5C[C@@H]5[C@]4(C)[C@H]3CC[C@@]21C` [CYPROTERONE ACETATE], the “ABSOLUTE BASOPHIL” value [1] is reported as 0 CELLS/uL, the “ABSOLUTE EOSINOPHIL” value [1] is reported as 0 CELLS/uL and the “ABSOLUTE LYMPHOCYTE” value [1] is reported as 12191.17 CELLS/uL. For the same compound, the “ABSOLUTE MONOCYTE” value [1] was 183.17 CELLS/uL, the “ABSOLUTE SEGMENTED NEUTROPHIL” value [1] was 1192.33 CELLS/uL and the BASOPHIL [1] was 0%. For the same compound, the EOSINOPHIL [1] was 0%, the “ERYTHROCYTE COUNT” value [1] was 5.51 x10E6/uL and the HEMATOCRIT [1] was 35.45%. The HEMOGLOBIN [1] was 13.82 G/DL, the “LEUKOCYTE COUNT” value [1] was 13.57 x10E3/uL and the LYMPHOCYTE [1] was 89.83%. For the same compound, the “MEAN CORPUSCULAR HEMOGLOBIN” value [1] was 25.1 pg, the “MEAN CORPUSCULAR HEMOGLOBIN CONCENTRATION” value [1] was 38.98 G/DL and the “MEAN CORPUSCULAR VOLUME” value [1] was 64.42 fL. For the same compound, the MONOCYTE [1] was 1.33%, the NEUTROPHIL [1] was 8.83% and the “NUCLEATED RED BLOOD CELLS” value [1] was 0 /100WBC. The “PLATELET COUNT” value [1] was 1118.17 x10E3/uL, the “ALANINE AMINOTRANSFERASE” value [1] was 55 u/L and the ALBUMIN [1] was 4.15 G/DL. The “ALKALINE PHOSPHATASE” value [1] was 449.5 u/L, the “ASPARTATE AMINOTRANSFERASE” value [1] was 112.83 u/L and the “BLOOD UREA NITROGEN” value [1] was 17.33 mg/dL. The “CARBON DIOXIDE” value [1] was 29.5 mmol/L, the CHLORIDE [1] was 101 MEQ/L and the CHOLESTEROL [1] was 70 mg/dL. The “CREATINE PHOSPHOKINASE” value [1] was 1325.83 u/L, the CREATININE [1] was 0.18 mg/dL and the GLUCOSE [1] was 171.5 mg/dL. For the same compound, the “LACTATE DEHYDROGENASE” value [1] was 386 u/L, the LIPASE [1] was 10 u/L and the PHOSPHORUS [1] was 11.57 mg/dL. The POTASSIUM [1] was 6.21 MEQ/L, the SODIUM [1] was 141.65 MEQ/L and the “TOTAL BILIRUBIN” value [1] was 0.15 mg/dL. For the same compound, the “TOTAL PROTEIN” value [1] was 5.75 G/DL, the “URIC ACID” value [1] was 1.28 mg/dL and the “ABSOLUTE BASOPHIL” value [2] was 0 CELLS/uL. For the same compound, the “ABSOLUTE EOSINOPHIL” value [2] was 138.17 CELLS/uL, the “ABSOLUTE LYMPHOCYTE” value [2] was 13283.17 CELLS/uL and the “ABSOLUTE MONOCYTE” value [2] was 303.83 CELLS/uL. The “ABSOLUTE SEGMENTED NEUTROPHIL” value [2] was 1308.17 CELLS/uL, the BASOPHIL [2] was 0% and the EOSINOPHIL [2] was 1%. For the same compound, the “ERYTHROCYTE COUNT” value [2] was 5.32 x10E6/uL, the HEMATOCRIT [2] was 33.8% and the HEMOGLOBIN [2] was 13.63 G/DL. The “LEUKOCYTE COUNT” value [2] was 15.03 x10E3/uL, the LYMPHOCYTE [2] was 88.33% and the “MEAN CORPUSCULAR HEMOGLOBIN” value [2] was 25.68 pg. The “MEAN CORPUSCULAR HEMOGLOBIN CONCENTRATION” value [2] was 40.35 G/DL, the “MEAN CORPUSCULAR VOLUME” value [2] was 63.67 fL and the MONOCYTE [2] was 1.83%. For the same compound, the NEUTROPHIL [2] was 8.83%, the “NUCLEATED RED BLOOD CELLS” value [2] was 0 /100WBC and the “PLATELET COUNT” value [2] was 1097.5 x10E3/uL. For the same compound, the “ALANINE AMINOTRANSFERASE” value [2] was 54.5 u/L, the ALBUMIN [2] was 4.27 G/DL and the “ALKALINE PHOSPHATASE” value [2] was 337 u/L. For the same compound, the “ASPARTATE AMINOTRANSFERASE” value [2] was 94.67 u/L, the “BLOOD UREA NITROGEN” value [2] was 17 mg/dL and the “CARBON DIOXIDE” value [2] was 28.33 mmol/L. For the same compound, the CHLORIDE [2] was 101.5 MEQ/L, the CHOLESTEROL [2] was 71.33 mg/dL and the “CREATINE PHOSPHOKINASE” value [2] was 628.17 u/L. For the same compound, the CREATININE [2] was 0.19 mg/dL, the GLUCOSE [2] was 177.83 mg/dL and the “LACTATE DEHYDROGENASE” value [2] was 500.5 u/L. It also gave an LIPASE [2] of 9.5 u/L, a PHOSPHORUS [2] of 12.3 mg/dL and a POTASSIUM [2] of 5.63 MEQ/L. The SODIUM [2] was 143.03 MEQ/L, the “TOTAL BILIRUBIN” value [2] was 0.2 mg/dL and the “TOTAL PROTEIN” value [2] was 6.02 G/DL. For the same compound, the “URIC ACID” value [2] was 1.5 mg/dL, the “ABSOLUTE BASOPHIL” value [3] was 0 CELLS/uL and the “ABSOLUTE EOSINOPHIL” value [3] was 48.33 CELLS/uL. For the same compound, the “ABSOLUTE LYMPHOCYTE” value [3] was 14035.67 CELLS/uL, the “ABSOLUTE MONOCYTE” value [3] was 48.33 CELLS/uL and the “ABSOLUTE SEGMENTED NEUTROPHIL” value [3] was 1667.67 CELLS/uL. The BASOPHIL [3] was 0%, the EOSINOPHIL [3] was 0.33% and the “ERYTHROCYTE COUNT” value [3] was 5.31 x10E6/uL. For the same compound, the HEMATOCRIT [3] was 35.1%, the HEMOGLOBIN [3] was 13.77 G/DL and the “LEUKOCYTE COUNT” value [3] was 15.8 x10E3/uL. The LYMPHOCYTE [3] was 88.67%, the “MEAN CORPUSCULAR HEMOGLOBIN” value [3] was 25.93 pg and the “MEAN CORPUSCULAR HEMOGLOBIN CONCENTRATION” value [3] was 39.23 G/DL. For the same compound, the “MEAN CORPUSCULAR VOLUME” value [3] was 66.13 fL, the MONOCYTE [3] was 0.33% and the NEUTROPHIL [3] was 10.67%. The “NUCLEATED RED BLOOD CELLS” value [3] was 0 /100WBC, the “PLATELET COUNT” value [3] was 1211 x10E3/uL and the “ALANINE AMINOTRANSFERASE” value [3] was 71.67 u/L. For the same compound, the ALBUMIN [3] was 4.43 G/DL, the “ALKALINE PHOSPHATASE” value [3] was 396.67 u/L and the “ASPARTATE AMINOTRANSFERASE” value [3] was 84.67 u/L. For the same compound, the “BLOOD UREA NITROGEN” value [3] was 21.67 mg/dL, the “CARBON DIOXIDE” value [3] was 28 mmol/L and the CHLORIDE [3] was 100.67 MEQ/L. The CHOLESTEROL [3] was 88.33 mg/dL, the “CREATINE PHOSPHOKINASE” value [3] was 202.33 u/L and the CREATININE [3] was 0.15 mg/dL. For the same compound, the GLUCOSE [3] was 155.67 mg/dL, the “LACTATE DEHYDROGENASE” value [3] was 202 u/L and the LIPASE [3] was 10.67 u/L. For the same compound, the PHOSPHORUS [3] was 11.13 mg/dL, the POTASSIUM [3] was 6.55 MEQ/L and the SODIUM [3] was 141.9 MEQ/L. For the same compound, the “TOTAL BILIRUBIN” value [3] was 0.13 mg/dL, the “TOTAL PROTEIN” value [3] was 6.27 G/DL and the “URIC ACID” value [3] was 1.47 mg/dL.
